Here are results for 1 molecule from patent US10653672B2, “Myogenesis promotor, muscle atrophy inhibitor, medical composition and TAZ activator” (National University Corporation Tokyo Medical and Dental …, priority 2014, dated 2020).

Several values for one entry are separate records, joined by “and”; a condition that tells them apart may be missing. Equal entries are not always repeated.

Assay [1] concerns C2C12 cells. In words: Muscle formation in C2C12 cells with or without TAZ knockdown (anti-MHC immunostaining, immunoblotting). The assay is classed as cell-based, mouse. To be noted: C2C12 cells with TAZ not knocked down (si Cont); 10 μM; 72 hours. The protocol:
(2) C2C12 cells with TAZ knocked down by a method described in Sci Signal 2:ra59 (si TAZ) and C2C12 cells with TAZ not knocked down (si Cont) were cultured for 72 hours in a culture medium added with IBS008738 or DMSO at a concentration of 10 μM, respectively, and were immunostained with an anti-MHC antibody (the white portion in FIG. 3B, the bar is 100 μm). Further, immunoblotting was performed with an anti-MHC antibody and an anti-TAZ antibody (see FIG. 3C). […] Further, the expression of MHC was lost by the knockdown of TAZ.
Human TAZ and mouse TAZ were knocked down in MCF10A cells and C2C12 cells as described previously (Ikeda M et al., Sci Signal 2:ra59). The double strand (ds) RNAs used are human TAZ (Ambion s24789) and mouse TAZ (Dharmacon siRNA D-041057).

The test system of assay [2] is association of TEAD with CTGF. The assay can be described thus: Chromatin immunoprecipitation, TEAD on CTGF promoter. It is filed as cell-based, mouse. To be noted: C2C12 cells; 10 μM; differentiation condition 24 hours; protein G sepharose without antibody; listed as IBS008738. As to the method: (1) Chromatin immunoprecipitation of MyoD, TEAD and Pax3 was performed on C2C12 cells that were cultured under differentiation condition for 24 hours in a culture medium added with IBS008738 or DMSO at a concentration of 10 μM. Myogenin, connective tissue growth factor (CTGF) and MyfS were detected by PCR, respectively. The immunoprecipitation with protein G sepharose was used as a control (Mock ChIP). […] The line and the error bar in the figure indicate the average value and the standard error, *p<0.05, ***p<0.001, ns refers to not significant.
The Chromatin immunoprecipitation was performed according to the following process. C2C12 cells were cultured to confluence, and then treated with IBS008738 or DMSO at a concentration of 10 μM in a differentiation medium for 24 hours. The cells were crosslinked in 1.42% (v/v) formaldehyde for 15 minutes, and the reaction was quenched by treating with 125 mM glycine for 5 minutes. […] Shearing was analyzed by agarose gel electrophoresis. […] The immunoprecipitated DNA fragments were isolated using Chelex-100 resin and diluted by 1:2.5 for quantitative PCR analysis. Input normalized relative abundance was determined.

In assay [3] the test system is C2C12 cells. In words: Immunofluorescence of endogenous MyoD and TAZ in C2C12 cells. It is filed as cell-based, mouse. The settings on record: 10 μM. As to the method: Immunostaining of endogenous MyoD and TAZ in C2C12 cells was performed at three stages, i.e., after being cultured in a medium added with IBS008738 or DMSO at a concentration of 10 μM under growth condition for 24 hours, after being cultured under differentiation condition for 24 hours, and after being cultured under differentiation condition for 72 hours (see FIG. 7B). Both MyoD and TAZ existed at each of the three stages. After being cultured under growth condition for 24 hours, MyoD and TAZ were diffusely distributed in the nuclei (top), but formed dots under differentiation condition. After being cultured under differentiation condition for 24 hours, some cells strongly expressed TAZ, whereas other cells expressed more MyoD (middle). After being cultured under differentiation condition for 72 hours, in the single-nuclear cells, TAZ expression decreased while MyoD was still expressed. In the multi-nuclear cells, both TAZ and MyoD were expressed and colocalized in the nuclei (bottom). […] However, at 24 hours under differentiation condition, colocalization of TAZ and MyoD in the single-nuclear cells and generation of cells with two or three nuclei were promoted in the case with IBS008738 as compared with the case with DMSO (middle). […] The immunostaining and the immunofluorescence analysis were performed by the method described in Exp Cell Res 313:1484-1495. The line in the figures is 50 μm.

The next assay relates to Balb/c ByJ mice. In words: Suppression of dexamethasone-induced muscle atrophy. It is filed as in vivo, mouse. As to the method: (1) A 25 mg/mL dexamethasone stock solution in DMSO was prepared. Three Balb/c ByJ mice (6 week, female) were intraperitoneally injected with 20 μL of the dexamethasone stock solution, each day for a week. As a control group, three other individuals were injected with 20 μL of DMSO. On day 9, 11 and 13, each group of the mice was injected with a solution prepared by dissolving 0.3 μL of 10 mM IBS008738 stock solution in 100 μL PBS, on one hindlimb muscle, and with 100 μL PBS on the other hindlimb muscle. The mice were sacrificed at day 14, and the muscle tissues were fixed and stained with hematoxylin and eosin (see FIG. 8D). It was observed that the muscle fibers of the mice administered with dexamethasone were shrinked.
(2) The cross section of the muscle fibers of the individual intraperitoneally injected with dexamethasone was stained with an anti-laminin antibody and observed. […] The cross-section area of muscle fibers (500 per individual) of the three mice was measured. As a result, the area of the individual injected with IBS008738 was greater than the area of the individual injected with DMSO (see FIG. 9F). The cross-section area of muscle fibers was analyzed with Image J software.

`Cc1ccc(-n2cnc(/N=C/N3CCOCC3)c2C(=O)c2ccccc2)cc1` [exemplary compound 1]: in the assay on C2C12 cells [1], the muscle formation entry is reported as “promoted muscle formation”. Moreover, the “Input %, CTGF-p, Mock ChIP” value in assay [2] was 0.06% and 0.04%. For the same molecule, the “colocalization of TAZ and MyoD in the single-nuclear cells and generation of cells with two or three nuclei” value with C2C12 cells [3] (24 hours under differentiation condition, compared with DMSO) was “promoted”. Also, the multinuclear cells result with C2C12 cells [3] (72 hours under differentiation condition, compared with DMSO) was “remarkably increased”. Moreover, the “MyoD and TAZ immunostaining compared with DMSO” value in the assay with C2C12 cells [3] (growth condition 24 hours) is listed as “no significant difference from the case with DMSO was not observed”. Besides, the “cross-section area of muscle fibers compared with DMSO” value in the assay with Balb/c ByJ mice (dexamethasone mice, 500 fibers per individual, three mice) was “greater”. Besides, the “shrinkage of muscle fibers compared with DMSO” value with Balb/c ByJ mice (dexamethasone mice, cross section stained with anti-laminin antibody) is listed as “more suppressed”. The “effect on muscle fibers” value with Balb/c ByJ mice (mice intraperitoneally injected with DMSO (no dexamethasone), IBS008738 into hindlimb muscle on day 9, 11 and 13, hematoxylin and eosin) is “No significant effect”. In addition, in the assay on Balb/c ByJ mice (mice intraperitoneally injected with dexamethasone, IBS008738 into hindlimb muscle on day 9, 11 and 13, hematoxylin and eosin, day 14), the “shrinkage of muscle fibers” value is “partly suppressed”.
